Assays:
Danio rerio embryo [1] = experiment: LEL embryonic photomotor response 24 hpf
Danio rerio embryo [2] = experiment: BMC10 mortality 24-120 hpf; higher = less toxic
Danio rerio embryo [3] = experiment: LEL larval photomotor response dark phase 120 hpf
Danio rerio embryo [4] = experiment: BMC10 any morphological effect or mortality at 120 hpf; higher = less toxic
HL-60 = experiment: Cell Health Index (toxicity pseudo-probability over dose series) (index 0-1); higher = more cytotoxic / cell stress;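 further: HL-60 cells exposed 4 h at 37 °C to ten threefold dilutions spanning 5 nM to 100 µM, multiparametric flow cytometry features scored by machine-learning classification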

SMILES	LEL embryonic photomotor response 24 hpf (Danio rerio embryo [1])	BMC10 mortality 24-120 hpf (Danio rerio embryo [2])	LEL larval photomotor response dark phase 120 hpf (Danio rerio embryo [3])	BMC10 any morphological effect or mortality (Danio rerio embryo [4])	Cell Health Index (HL-60)
COc1ccc2cc1Oc1ccc(cc1)C[C@H]1c3c(cc4c(c3Oc3cc5c(cc3OC)CCN(C)[C@@H]5C2)OCO4)CCN1C [Cepharanthine]	> 100 µM	10.9 µM	0.41 µM	10.5 µM	0.911
CC(=O)O[C@H]1[C@H]2O[C@]23[C@@H]2CC[C@@H]4C[C@@H](O)CC[C@]4(C)[C@H]2CC[C@]3(C)[C@H]1c1ccc(=O)oc1 [Cinobufagin]	1.23 µM	29.9 µM	33.3 µM	27.2 µM	0.556
CCCCCCC(=O)CCCCCC/C=C/C[C@@H](O)[C@H](O)[C@@](N)(CO)C(=O)O [Myriocin]	> 100 µM	1.46 µM	> 100 µM	1.03 µM	0.324
COC(=O)C1=C(C)N=C(c2ncc(F)cc2F)NC1c1ccc(F)cc1Cl (racemic) [(±)-BAY 41-4109]	11.1 µM	12.6 µM	> 100 µM	8.25 µM	0.592
C=C(C)[C@@H]1CC[C@]2(C(=O)O)CC[C@]3(C)[C@H](CC[C@@H]4[C@@]5(C)CC[C@H](OC(=O)CC(C)(C)C(=O)O)C(C)(C)[C@@H]5CC[C@]43C)[C@@H]12 [Bevirimat]	11.1 µM	3.82 µM	> 100 µM	1.29 µM	0.321
C=C[C@H](OC(C)=O)c1ccc(OC(C)=O)cc1 (racemic) [(±)-1'-Acetoxychavicol acetate]	> 100 µM	1.96 µM	> 100 µM	1.32 µM	0.778
CC(C)C[C@H](NC(=O)[C@H](Cc1ccccc1)NC(=O)c1cnccn1)B(O)O [Bortezomib]	> 100 µM	17.4 µM	0.14 µM	13.2 µM	0.24
N[C@H]1C[C@@H]1c1ccc(-c2cccc(O)c2)cc1 [OG-L002]	0.015 µM	15.4 µM	> 100 µM	3.27 µM	0.334
CN1CCN(CCOc2cc(OC3CCOCC3)c3c(Nc4c(Cl)ccc5c4OCO5)ncnc3c2)CC1 [Saracatinib]	100 µM	45.7 µM	> 100 µM	15.5 µM	0.695
C[C@H]1[C@H](OC(=O)CCC(=O)O)O[C@@H]2O[C@@]3(C)CC[C@H]4[C@H](C)CC[C@@H]1[C@@]24OO3 [Artesunate]	> 100 µM	9.08 µM	> 100 µM	7.91 µM	0.146

— the supplement of paper PMC11821682
